Results taken from US4843077A, “Isoquinoline derivatives having renal vasodilating properties and/or cardiotonic properties and/or phosphodiesterase inhibiting properties” (Ortho Pharmaceutical Corporation, priority 1987, dated 1989).
Like-named read-outs stand apart in the source and are kept apart here.

How the values were obtained:
[1] = target: phosphodiesterase fraction III; experiment: Inhibition of phosphodiesterase fraction III activity; type: biochemical; details: cyclic AMP substrate 0.01-1.0 micromolar, pH 7.4, fraction III enzyme from canine heart
renal vasculature = experiment: Renal vasodilating activity in anesthetized dogs; type: in vivo, adult mongrel dogs; details: Canis lupus familiaris
Procedure: The following procedure is a variation of the assay described in that report.
Adult mongrel dogs were anesthetized and surgically prepared for electromagnetic measurement of renal artery blood flow. A carotid artery was cannulated for measuring arterial blood pressure and drugs were administered intravenously or intraarterially (via the renal artery). Heart rate was monitored with a cardiotachometer. Renal vascular resistance was calcualted as the ratio of mean arterial blood pressure to renal artery blood flow. Dopamine was infused intravenously at 3 μg/kg/min for ten minutes (at an infusion rate of about 1 ml/min) to determine responsiveness of each dog to renal dopamine receptor stimulation. Cumulative dose-response data were obtained by infusing a compound of this invention at progressively increasing (usually three-fold) infusion rates, each dose being infused for five minutes. The maximum percent change from pre-drug control in renal artery blood flow (or in renal vascular resistance) was determined for each infusion dose.

cardiac muscle = experiment: Acute in vivo cardiotonic activity in anesthetized dogs; parameters: species or system adult mongrel dogs; details: anesthetized dog, relative to control
Procedure: The acute in vivo cardiotonic activity of compounds prepared according to the present invention was determined according to a modification of the procedure described by Alousi et al., Circ. Res., 45, 666 (1979).
In particular, adult mongrel dogs were anesthetized with sodium pentobarbital and were artificially respired. Arterial pressure was monitored via a femoral artery, and the pulse pressure was used to trigger a cardiotachometer for heart rate. Left ventricular pressure was determined with a Millar catheter, and dP/dT (the change in ventricular pressure with time) was derived. Cardiac output was determined by measuring ascending aortic blood flow with an electromagnetic flow probe, and myocardial contractile foorce was measured with a Walton Brodie strain gauge sutured to the right ventricle. Lead II EKG was also recorded.
A standard dose (10 μg/kg/min) of dopamine was administered to assess myocardial responsiveness.
Compounds of the invention were administered by intravenous infusion and the effects on cardiovascular parameters were determined.
Dose related effects of the test compound on heart rate (HR), maximum change in left ventricular pressure with time (dP/dT), percent change in cardiac force (CF) and the change in mean arterial blood pressure (MABP) were compared to pretreatment control values and expressed as a percent change.

[2] = iv, read-out: RVR, percent change in renal vascular resistance
[3] = anesthetized dog, dose 6.2 mpk iv, relative to control, read-out: HR, percent change in heart rate
[4] = anesthetized dog, dose 6.2 mpk iv, relative to control, read-out: MABP, percent change in mean arterial blood pressure
[5] = anesthetized dog, dose 6.2 mpk iv, relative to control, read-out: RBF, percent change in renal blood flow
[6] = total dose 1.875 mpk iv infusion
[7] = iv, read-out: HR, percent change in heart rate
[8] = anesthetized dog, dose 1.2 mpk iv, relative to control, read-out: HR, percent change in heart rate
[9] = anesthetized dog, dose 1.2 mpk iv, relative to control, read-out: MABP, percent change in mean arterial blood pressure
[10] = anesthetized dog, dose 1.2 mpk iv, relative to control, read-out: RBF, percent change in renal blood flow
[11] = anesthetized dog, dose 1.2 mpk iv, relative to control, read-out: RVR, percent change in renal vascular resistance
[12] = total dose 1.938 mpk iv infusion

`CNc1nc(C)c2cc(OC)c(OC)cc2c1[N+](=O)[O-]` [Cmpd 2] was tested, and the IC50 [1] was 265 µM.
With `CCCCNc1nc(C)c2cc(OC)c(OC)cc2c1[N+](=O)[O-]` [Cmpd 3, 3-(n-Butylamino)-6,7-dimethoxy-1-methyl-4-nitroisoquinoline] the IC50 [1] was 250 µM.
Work on `COc1cc2c(C)nc(NCc3ccccc3)c([N+](=O)[O-])c2cc1OC` [Cmpd 4] yielded a change in vivo at 6.2 mg/kg (renal vasculature; [2]) of -14%, a change in vivo at 6.2 mg/kg (renal vasculature; [3]) of -15% and a change in vivo at 6.2 mg/kg (renal vasculature; [4]) of -6%. For the same compound, the change in vivo at 6.2 mg/kg (renal vasculature; [5]) was 9%.
`CCN(CC)CCNc1nc(C)c2cc(OC)c(OC)cc2c1[N+](=O)[O-]` [Cmpd 6] was tested, and the “CF, percent change in cardiac force” value (cardiac muscle; [6]) was 40 percent change, the “HR, percent change in heart rate” value (cardiac muscle; [6]) was -6 percent change and the “MABP, percent change in mean arterial blood pressure” value (from here on “MABP, percent change”) (cardiac muscle; [6]) was 4 percent change. The “dP/dt, maximum percent change in left ventricular pressure with time” value (“dP/dt, maximum percent change” for short) (cardiac muscle; [6]) was 52 percent change.
For `COc1cc2c(C)nc(NCCN3CCN(c4ccccc4OC)CC3)c([N+](=O)[O-])c2cc1OC` [Cmpd 8], the change in vivo at 0.3 mg/kg (renal vasculature; [7]) was -6%, the change in vivo at 0.3 mg/kg (renal vasculature; anesthetized dog, dose 0.3 mpk iv, relative to control, read-out: MABP, percent change in mean arterial blood pressure) was -20% and the change in vivo at 0.3 mg/kg (renal vasculature; anesthetized dog, dose 0.3 mpk iv, relative to control, read-out: RBF, percent change in renal blood flow) was 10%. It also gave a change in vivo at 0.3 mg/kg (renal vasculature; anesthetized dog, dose 0.3 mpk iv, relative to control, read-out: RVR, percent change in renal vascular resistance) of -27%.
`COc1cc2c(C)nc(NC3CCN(Cc4ccccc4)CC3)c([N+](=O)[O-])c2cc1OC` [Cmpd 11] showed a change in vivo at 6.2 mg/kg (renal vasculature; [2]) of -28%, a change in vivo at 6.2 mg/kg (renal vasculature; [3]) of -16% and a change in vivo at 6.2 mg/kg (renal vasculature; [4]) of -13%. For the same compound, the change in vivo at 6.2 mg/kg (renal vasculature; [5]) was 28% and the IC50 [1] was 120 µM.
With `COc1cc2c(C)nc(Nc3ccccc3)c([N+](=O)[O-])c2cc1OC` [Cmpd 12] the change in vivo at 6.2 mg/kg (renal vasculature; [2]) was -32%, the change in vivo at 6.2 mg/kg (renal vasculature; [3]) was 2% and the change in vivo at 6.2 mg/kg (renal vasculature; [4]) was -3%. For the same compound, the change in vivo at 6.2 mg/kg (renal vasculature; [5]) was 42% and the IC50 [1] was 250 µM.
`COc1cc2c(C)nc(N(C)C)c([N+](=O)[O-])c2cc1OC` [Cmpd 13, 6,7-Dimethoxy-1-methyl-3-(N,N-dimethyl)amino-4-nitroisoquinoline] gave a change in vivo at 1.2 mg/kg (renal vasculature; [8]) of 17%, a change in vivo at 1.2 mg/kg (renal vasculature; [9]) of 16% and a change in vivo at 1.2 mg/kg (renal vasculature; [10]) of 60%. The change in vivo at 1.2 mg/kg (renal vasculature; [11]) was -23% and the IC50 [1] was 10 µM.
With `CCN(C)c1nc(C)c2cc(OC)c(OC)cc2c1[N+](=O)[O-]` [Cmpd 14] the “CF, percent change in cardiac force” value (cardiac muscle; [12]) was 21 percent change, the “HR, percent change in heart rate” value (cardiac muscle; [12]) was 8 percent change and the “MABP, percent change” value (cardiac muscle; [12]) was 6 percent change. For the same compound, the “dP/dt, maximum percent change” value (cardiac muscle; [12]) was 20 percent change and the IC50 [1] was 25 µM.
`CCN(CC)c1nc(C)c2cc(OC)c(OC)cc2c1[N+](=O)[O-]` [Cmpd 15] was tested, and the change in vivo at 6.2 mg/kg (renal vasculature; [3]) was 4%, the change in vivo at 6.2 mg/kg (renal vasculature; [4]) was 0% and the change in vivo at 6.2 mg/kg (renal vasculature; [5]) was 8%. The change in vivo at 6.2 mg/kg (renal vasculature; anesthetized dog, dose 6.2 mpk iv, relative to control, read-out: RVR, percent change in renal vascular resistance) was -8%.
In the case of `CCN(CCN(C)C)c1nc(C)c2cc(OC)c(OC)cc2c1[N+](=O)[O-]` [Cmpd 16], the IC50 [1] is reported as 300 µM.
`COc1cc2c(C)nc(N3CCN(c4ccccc4)CC3)c([N+](=O)[O-])c2cc1OC` [Cmpd 19] gave a change in vivo at 6.2 mg/kg (renal vasculature; [2]) of -18%, a change in vivo at 6.2 mg/kg (renal vasculature; [3]) of -5% and a change in vivo at 6.2 mg/kg (renal vasculature; [4]) of 6%. It also gave a change in vivo at 6.2 mg/kg (renal vasculature; [5]) of 30% and an IC50 [1] of 150 µM.
Work on `COc1cc2c(C)nc(N(C)c3ccccc3)c([N+](=O)[O-])c2cc1OC` [Cmpd 21] yielded an IC50 [1] of 220 µM.
Work on `CCCCSc1nc(C)c2cc(OC)c(OC)cc2c1[N+](=O)[O-]` [Cmpd 23, 3-(n-Butylthio)-6,7-dimethoxy-1-methyl-4-nitroisoquinoline] yielded a change in vivo at 6.2 mg/kg (renal vasculature; iv, read-out: MABP, percent change in mean arterial blood pressure) of -1%, a change in vivo at 6.2 mg/kg (renal vasculature; [2]) of -15% and a change in vivo at 6.2 mg/kg (renal vasculature; [3]) of 4%. For the same compound, the change in vivo at 6.2 mg/kg (renal vasculature; [5]) was 16% and the IC50 [1] was 280 µM.
For `COc1cc2c(C)nc(Nc3ccccc3)c(N)c2cc1OC` [Cmpd 25, 4-amino-6,7-dimethoxy-1-methyl-3-[(N-phenyl)amino]isoquinoline], the IC50 [1] was 68 µM.
`COc1cc2c(C)nc(N(C)C)c(N)c2cc1OC` [Cmpd 26, 4-Amino-6,7-dimethoxy-3-(N,N-dimethyl)amino-1-methylisoquinoline] was tested, and the IC50 [1] was 14 µM.
`CCCCNC(=O)Nc1c(Nc2ccccc2)nc(C)c2cc(OC)c(OC)cc12` [Cmpd 27] showed a change in vivo at 1.2 mg/kg (renal vasculature; [7]) of -6%, a change in vivo at 1.2 mg/kg (renal vasculature; [9]) of 8% and a change in vivo at 1.2 mg/kg (renal vasculature; [10]) of 7%. For the same compound, the change in vivo at 1.2 mg/kg (renal vasculature; [11]) was 1%.
In the case of `CCCCNC(=O)Nc1c(N(C)C)nc(C)c2cc(OC)c(OC)cc12` [Cmpd 28], the “CF, percent change in cardiac force” value (cardiac muscle; [6]) is reported as 20 percent change, the “HR, percent change in heart rate” value (cardiac muscle; [6]) is reported as 2 percent change and the “MABP, percent change” value (cardiac muscle; [6]) is reported as 2 percent change. The “dP/dt, maximum percent change” value (cardiac muscle; [6]) was 16 percent change and the IC50 [1] was 300 µM.
Compound `C=CCNC(=O)Nc1c(N(C)C)nc(C)c2cc(OC)c(OC)cc12` [Cmpd 30] has a change in vivo at 1.2 mg/kg (renal vasculature; [2]) of -9%, a change in vivo at 1.2 mg/kg (renal vasculature; [8]) of 3% and a change in vivo at 1.2 mg/kg (renal vasculature; [9]) of 1%. The change in vivo at 1.2 mg/kg (renal vasculature; [10]) was 12% and the IC50 [1] was 280 µM.
